Data set [1] relates to mTOR signaling in Flp-In T-REx 293 cells. Description: mTOR signaling by Western blot in parental (wild-type) Flp-In 293 cells. Type of data set: cell-based, human. The conditions noted are these: for IC50: Homo sapiens, 24 h treatment, wild-type 293 cells. As for the experimental part:
All cell lines were maintained in DMEM (Gibco) supplemented with 10% heat-inactivated FBS (Axenia Biologix) at 37 °C in 5% CO2. Flp-In T-REx 293 cells were obtained from Thermo Fisher supplemented with 15 µg/mL blasticin and 100 µg/mL Zeocin. Flp-In T-REx 293 FKBP12 V55G cells were supplemented with 15 µg/mL blasticin and 150 µg/mL hygromycin B. FKBP12 V55G expression was induced with 1 µg/mL doxycycline 24 h prior to drug treatments. MCF7 cells were obtained from ATCC (American Type Culture Collection), and MCF7 mTOR F2108L cells were described previously ([30]). When indicated, cells were treated with drugs at 60–80% confluency at a final DMSO concentration of 0.1%. At the end of the treatment period, cells were placed on ice and washed once with PBS. Cells were scraped with a spatula and lysed in radioimmunoprecipitation assay (RIPA) buffer supplemented with protease and phosphatase inhibitors (cOmplete and phosSTOP, Roche) on ice for 5 min. Lysates were clarified by high-speed centrifugation. Lysate concentration was determined by Bradford assay (Thermo Fisher) and adjusted to 2 mg/mL with additional RIPA buffer. Samples were mixed with 5x SDS loading dye and heated at 95 °C for 5 min.
SDS-PAGE was run with Novex 4–12% Bis-Tris gel (Invitrogen) in MOPS running buffer at 200V for 40 min. Samples were loaded at 20 µg lysate per lane. […] Following three 5 min. washes with TBST, membranes were imaged on a Li-COR Odyssey fluorescence imager. […] Blot quantification was performed in Fiji, and data were graphed and fit in Prism 9 (GraphPad). […] For detection of phosphorylated and total protein, primary antibodies for phospho-Akt/Akt, phospho-S6K/S6K, or phospho-S6/S6 were combined and detected using a mixture of species-specific secondary antibodies with orthogonal fluorescence to allow simultaneous detection of phosphorylated and total protein from a single membrane, or membrane was stripped (Cell Signaling Technology) after detection of phosphorylated protein and then reblocked and reprobed with primary antibody for total protein.

The subject of data set [2] is Flp-In 293 cells with and without FKBP12 V55G-HA. Description: Cell growth by CellTiter-Glo in Flp-In 293 cells. It is filed as cell-based, human. The conditions noted are these: 72 h treatment. A general note: Cellular ATP, detected with luciferase, serves as a proxy for viable cell number.
Protocol: All cell lines were maintained in DMEM (Gibco) supplemented with 10% heat-inactivated FBS (Axenia Biologix) at 37 °C in 5% CO2. Flp-In T-REx 293 cells were obtained from Thermo Fisher supplemented with 15 µg/mL blasticin and 100 µg/mL Zeocin. […] When indicated, cells were treated with drugs at 60–80% confluency at a final DMSO concentration of 0.1%.
Cells were seeded into 96-well tissue-culture treated plates (Greiner) and were allowed to incubate for 24 h. Cells were treated with indicated compounds and incubated for 72 h (100 µL final well volume, 0.1% DMSO). Cell viability was assessed by CellTiter-Glo (Promega). Assay reagent was diluted 1:4 in PBS containing 1% Triton X-100, and 100 µL was added to each well and mixed on a plate shaker for 20 min. Luminescence was measured on a Tecan Spark 20M.

Usually IC50 stands for the point on the concentration scale where inhibition reaches its midpoint.

Where two headings read alike, the source gives them in different places.

For `CCO/N=C1/C[C@@H]([C@H](C)C[C@@H]2CC[C@@H](O)[C@H](OC)C2)OC(=O)[C@@H]2CCCCN2C(=O)C(=O)[C@]2(O)O[C@@H](CC[C@H]2C)C[C@H](OC)/C(C)=C/C=C/C=C/[C@@H](C)C[C@@H](C)C(=O)[C@H](OC)[C@H](O)/C(C)=C/[C@H]1C` [Rapa*-3Z], the “Stability under experimental conditions (fly food, room temperature)” value (15 days, 100 µM) is reported as “at least 15 d”. Moreover, for the setting “storage under experimental conditions, wild-type larvae readout”, the “Decomposition to rapamycin after prolonged storage” value is listed as “does not decompose to rapamycin”. In addition, in data set [1] (10 nM, time course), the “mTOR signaling in wild-type 293 cells” value is reported as “unaffected”. For the same compound, the IC50 was determined as 121 nM in data set [1] (read-out: IC50 phospho-S6) and 76 nM in data set [1] (read-out: IC50 phospho-S6K). The “Cell growth inhibition, 293 cells with and without FKBP12 V55G” value in data set [2] is listed as “selectively inhibited growth of mutant-expressing 293 cells”.

The values above are taken from article PMC9499525, “Tissue-restricted inhibition of mTOR using chemical genetics” (Proceedings of the National Academy of Sciences of the …, 2022).
